Results taken from US4192871A, “Chemical compounds” (Glaxo Laboratories Limited, priority 1976, dated 1980).

Key:
pH of the salt solutions = format: physicochemical; conditions: aqueous solution of the salt, Table 5
Experimental: (§1) A solution of the above free base (492 mg; 1 mmole) in ethanol (10 ml) was treated with a solution (10 ml) of M/10 citric acid in ethanol water (9:1) and the mixture evaporated in vacuo at low temperature to afford a froth.
(§2) Table 5 summarises the properties and preparation of salts of the invention by one of the following methods:
(§3) A. The 11β-aminoester (1 part) was added to a solution of the acid (1 molar part) in water and the mixture stirred or shaken until a clear solution was obtained. The solution was made up with water to the weight indicated, filtered through a membrane and the pH determined.
(§4) B. The 11β-aminoester (1 part) was added to a solution of the acid (1 molar part) in water and the mixture stirred or shaken. As free base remained undissolved, further acid was added and the mixture agitated again. The solution was made up with water to the weight indicated and any material which then remained undissolved was collected in a weighed funnel and the weight of free base dissolved calculated and the pH of the solution measured.
(§5) C. A mixture of the 11β-aminoester (1 part), a 0.1 M solution of the acid (1 molar part) and ethanol was evaporated in vacuo and dried to constant weight. The residue was dissolved in a little water and any material which then remained undissolved collected in a weighed funnel and the weight of free base dissolved calculated. The solution was made up with water to the weight indicated and its pH measured.
(§6) D. The 11β-aminoester (1 part) was added to a solution of the acid (1 molar part) in water and the mixture stirred or shaken. The solution was made up with water to the weight indicated. The material remaining undissolved was collected in a weighed funnel and the weight of free base dissolved calculated and the pH of the solution measured.
(§7) E. As in method C except that further acid was added to the residue after addition of the small amount of water.
11β-N,N-Diethylaminoacetoxy-2β-ethoxy-3α-hydroxy-5α-pregnan-20-one (1.45 g) was agitated with citric acid monohydrate (621 mg) in 0.9% w/v sodium chloride solution (steriflex^(R)) (130 ml.) at 20° for 16.5 hours. The resulting solution was stirred at 21° and N/5 sodium hydroxide solution in steriflex^(R) (10.5 ml) was added dropwise during 30 minutes, raising the pH from 3.63 to 4.52. The solution was diluted to 162.5 g so that the concentration of steroid was 9 mg/ml. The solution of the citrate was filtered through a membrane and finally filtered into 8 sterile ampoules.
11β-(N-Butyl-N-ethylaminoacetoxy)-3α-hydroxy-5α-pregnan-20-one (1.80 g) was agitated with citric acid monohydrate (793 mg) in 0.9% w/v sodium chloride solution (steriflex^(R)) (160 ml) at 20° for 19.5 hours. The resulting solution was slightly cloudy. This solution was stirred at 21° and N/5 sodium hydroxide solution in steriflex^(R) (5.8 ml) was added dropwise during 15 minutes, raising the pH from 3.62 to 4.00. The solution was diluted to 201.2 g so that the concentration of steroid was 9 mg/ml. The cloudiness was removed by filtration through a membrane and the clear solution of the citrate was filtered into 8 sterile ampoules.
Sodium iodide (0.250 g) and diethylamine (0.5 ml) were added to a solution of 11β-chloroacetoxy-2β-ethoxy-3α-hydroxy-D-homo-5α-pregnan-20-one (0.250 g) in acetone (10 ml) and the mixture was left at room temperature for 3 days during which time a white solid precipated. Water was added and the yellow solution was concentrated in vacuo whereupon crystallisation occurred. The needles were filtered off and washed well with acetone/water yielding the title compound (0.201 g), m.p. 160°-73°, [α]D +60.8°. The above base (0.101 g) was stirred with citric acid monohydrate (0.042 g) in water (9.5 ml) for 21 hours. The solution was made up to 10.1 g by weight. The solid remaining out of solution was filtered off, dried and weighed. The solution was passed through a millipore filter giving an aqueous solution of the title compound, concentration 9.75 mg/ml, pH 3.66. […]

[1] = dissolution of the 11β-aminoester salts in aqueous acid (Table 5 and Examples 101, 225-229); format: physicochemical
Experimental: as §1, §2, §3, §4, §5, §6, §7
The solid citric acid used was as its monohydrate.
Sodium iodide (0.250 g) and diethylamine (0.5 ml) were added to a solution of 11β-chloroacetoxy-2β-ethoxy-3α-hydroxy-D-homo-5α-pregnan-20-one (0.250 g) in acetone (10 ml) and the mixture was left at room temperature for 3 days during which time a white solid precipated. Water was added and the yellow solution was concentrated in vacuo whereupon crystallisation occurred. The needles were filtered off and washed well with acetone/water yielding the title compound (0.201 g), m.p. 160°-73°, [α]D +60.8°. The above base (0.101 g) was stirred with citric acid monohydrate (0.042 g) in water (9.5 ml) for 21 hours. The solution was made up to 10.1 g by weight. The solid remaining out of solution was filtered off, dried and weighed. The solution was passed through a millipore filter giving an aqueous solution of the title compound, concentration 9.75 mg/ml, pH 3.66.
The above base (0.096 g) was stirred in a solution of citric acid monohydrate (0.038 g) in water (8.5 ml) for 20 hours. A large proportion of the steroid remained out of solution. More citric acid (0.038 g) was added and the mixture stirred for a further 6 hours. The solution was made up to 9.6 g by weight and the solid remaining out of solution was filtered off, dried and weighed. The solution was passed through a millipore filter giving an aqueous solution of the title compound, concentration 9.5 mg/ml, pH 2.85.
To a solution of citric acid monohydrate (52.5 mg) in water (2 ml) was added the above free base (115 mg). More water (8 ml) was added and the mixture was stirred for 72 hrs. A small amount of steroid remained out of solution and more citric acid (52.5 mg) was added. Within 5 mins. a clear solution was obtained which was made up to 11.5 g with water and filtered through a millipore filter yielding an aqueous solution of the title citrate, concentration 10 mg/ml, pH 3.0.
The above free base (112 mg) was added to a solution of citric acid monohydrate (52.5 mg) in water (2 ml). More water (8 ml) was added and the mixture was swirled from time to time. […]

[2] = method C: ethanol evaporated, residue in water, undissolved material weighed, WT. of solution Ex. 118: 10, 120: 10.4, 148: 9.54, 152: 5.6, 154: 9.1, 155: 8.77, 156: 9.06, 157: 9.5, 158: 9.38, 159: 9.17, 179: 9.65, 180: 11.7, 182: 4.9, 202: 12.05, 213: 12, 214: 11.5, 215: 11.1, 216: 11.6, 217: 12.1 g
[3] = method B: further acid added, undissolved material weighed, WT. of solution 10 g, except Ex. 130 and 141: 9.2, 142: 9.23, 143, 144, 189 and 199: 9.8, 149: 10.6, 153: 7.9, 162 and 188: 9.5, 163: 68, 166: 10.4, 168: 10.7, 169: 10.9, 183: 8.05, 184 and 201: 9.83, 185: 7.1, 186: 9.3, 192: 10.07, 193: 6.4, 195: 6.8, 196: 7, 197: 7.2, 200: 10.1, 206: 15 g
[4] = method A: clear solution, 1 molar part acid, made up with water to WT. of solution 10 g, except Ex. 121 and 150: 12, 123: 12.3, 124: 7.5, 129: 10.3, 135 and 139: 8.95, 164: 10.35, 170: 10.4, 181: 10.04, 187: 9.5, 210: 10.2, 221: 15 g

SMILES	pH (pH of the salt solutions)	Dissolved aminoester [1, 2] [mg]	Dissolved aminoester [1, 3] [mg]	Dissolved aminoester [1, 4] [mg]	Dissolved aminoester ([1]; method D: 1 molar part acid, undissolved material weighed, WT. of solution 10 g, except Ex. 136: 8.95, 140: 9.52, 165 and 167: 10.1, 190 and 198: 9.8, 191: 8.9, 194: 6.6, 204: 10.09, 219: 10.6 g) [mg]
CCCN(CCC)CC(=O)O[C@H]1C[C@]2(C)[C@@H](C(C)=O)CC[C@H]2[C@@H]2CC[C@H]3C[C@H](O)CC[C@]3(C)[C@H]21 [Example 154]	3.5	91	–	–	–
CC(=O)[C@H]1CC[C@H]2[C@@H]3CC[C@H]4C[C@H](O)CC[C@]4(C)[C@H]3[C@@H](OC(=O)CN(C)C(C)C)C[C@]12C [Example 183]	2.69	–	57.5	–	–
CCCN(CCC)CC(=O)O[C@H]1C[C@]2(C)[C@@H](C#N)CC[C@H]2[C@@H]2CC[C@H]3C[C@H](O)CC[C@]3(C)[C@H]21 [Example 206]	2.7	–	84	–	–
CCCCN(C)C(C)C(=O)O[C@H]1C[C@]2(C)[C@@H](C(C)=O)CC[C@H]2[C@@H]2CC[C@H]3C[C@H](O)CC[C@]3(C)[C@H]21 (some centres unmarked) [Example 182]	3.43	49	–	–	–
CCCCN(C)CC(=O)O[C@H]1C[C@]2(C)[C@@H](C(C)=O)CC[C@H]2[C@@H]2CC[C@H]3C[C@H](O)[C@@H](OCC)C[C@]3(C)[C@H]21 [Example 121]	3.65	–	–	120	–
CCCCCNCC(=O)O[C@H]1C[C@]2(C)[C@@H](C(C)=O)CC[C@H]2[C@@H]2CC[C@H]3C[C@H](O)CC[C@]3(C)[C@H]21 [Example 130]	3.12	–	80	–	–
CCN(CC)CC(=O)O[C@H]1C[C@]2(C)[C@@H](C(C)=O)CC[C@H]2[C@@H]2CC[C@H]3C[C@H](O)CC[C@]3(C)[C@H]21 [Example 152]	3.6	55.95	–	–	–
CCCCN(CC)CC(=O)O[C@H]1C[C@]2(C)[C@@H](C(C)=O)CC[C@H]2[C@@H]2CC[C@H]3C[C@H](O)CC[C@]3(C)[C@H]21 [Example 221]	3.52	–	–	150	–
CCN(CC(=O)O[C@H]1C[C@]2(C)[C@@H](C(C)=O)CC[C@H]2[C@@H]2CC[C@H]3C[C@H](O)CC[C@]3(C)[C@H]21)CC(C)C [Example 195]	2.98	–	59	–	–
CC(=O)[C@H]1CC[C@H]2[C@@H]3CC[C@H]4C[C@H](O)CC[C@]4(C)[C@H]3[C@@H](OC(=O)CN3CCCCCC3)C[C@]12C [Example 159]	3.55	91.7	–	–	–
CC(=O)[C@H]1CC[C@H]2[C@@H]3CC[C@H]4C[C@H](O)CC[C@]4(C)[C@H]3[C@@H](OC(=O)CN(C)C(C)CC(C)C)C[C@]12C (some centres unmarked) [Example 190]	3.43	–	–	–	86
COC(=O)[C@H]1CC[C@H]2[C@@H]3CC[C@H]4C[C@H](O)CC[C@]4(C)[C@H]3[C@@H](OC(=O)CN3CCCCC3)C[C@]12C [Example 125]	2.82	–	98	–	–
CC(=O)[C@H]1CC[C@H]2[C@@H]3CC[C@H]4C[C@H](O)CC[C@]4(C)[C@H]3[C@@H](OC(=O)CN(C)C)C[C@]12C [Example 151]	3.6	–	–	100	–
CCC(C)N(CC(=O)O[C@H]1C[C@]2(C)[C@@H](C(C)=O)CC[C@H]2[C@@H]2CC[C@H]3C[C@H](O)CC[C@]3(C)[C@H]21)C(C)CC (some centres unmarked) [Example 147]	2.03	–	85	–	–
CC(=O)[C@H]1CC[C@H]2[C@@H]3CC[C@H]4C[C@H](O)CC[C@]4(C)[C@H]3[C@@H](OC(=O)CN(C)CC(C)(C)C)C[C@]12C [Example 188]	2.58	–	31	–	–
CC(=O)C1CCC2C3CCC4CC(O)C(C)CC4(C)C3C(OC(=O)CN3CCC(C)CC3)CC12C (centres unmarked) [Example 175]	2.96	–	95	–	–
CC(=O)[C@H]1CC[C@H]2[C@@H]3CC[C@H]4C[C@H](O)CC[C@]4(C)[C@H]3[C@@H](OC(=O)CNCC(C)(C)C)C[C@]12C [Example 142]	3.12	–	92.3	–	–
CCCC(C)NCC(=O)O[C@H]1C[C@]2(C)[C@@H](C(C)=O)CC[C@H]2[C@@H]2CC[C@H]3C[C@H](O)CC[C@]3(C)[C@H]21 (some centres unmarked) [Example 141]	2.89	–	77.3	–	–
CCCN(CCC)CC(=O)O[C@H]1C[C@]2(C)[C@@H](C(C)=O)CC[C@H]2[C@@H]2CC[C@H]3C[C@](C)(O)CC[C@]3(C)[C@H]21 [Example 132]	3.4	–	–	100	–
CC(=O)C1CCC2C3CCC4CC(O)CCC4(C)C3C(OC(=O)CNC(C)CC(C)C)CC12C (centres unmarked) [Example 162]	3.0	–	86	–	–
CC(=O)[C@H]1CC[C@H]2[C@@H]3CC[C@H]4C[C@H](O)CC[C@]4(C)[C@H]3[C@@H](OC(=O)CNC(C(C)C)C(C)C)C[C@]12C [Example 144]	2.79	–	61	–	–
CC(=O)[C@H]1CC[C@H]2[C@@H]3CC[C@H]4C[C@H](O)CC[C@]4(C)[C@H]3[C@@H](OC(=O)CNC3CCCCC3)C[C@]12C [Example 138]	3.10	–	–	100	–
